Key:
Assay type in all cases: in vivo
Kochia (Kochia scoparia) = assay: Test A preemergence; conditions: Bassia scoparia, pre-emergence, 240 h, preemergence, 0 to 100 scale where 0 is no effect and 100 is complete control, read-out: Kochia plant response rating
In short: (§1)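 In a loam soil and sand blend, planted seeds got a preemergence directed soil spray, and young plants at the one- to two-leaf stage, 2–10 cm high, got a postemergence application; ~10 d greenhouse hold; injury rated visually, 0 = none, 100 = complete control.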

[1] = system: barnyardgrass (Echinochloa crus-galli); assay: Test A preemergence; conditions: Echinochloa crus-galli, pre-emergence, 240 h, preemergence, 0 to 100 scale where 0 is no effect and 100 is complete control, read-out: Barnyardgrass plant response rating
In short: as §1

[2] = system: giant foxtail (Setaria faberii); assay: Test A preemergence; conditions: Setaria faberi, pre-emergence, 240 h, preemergence, 0 to 100 scale where 0 is no effect and 100 is complete control, read-out: Foxtail, Giant plant response rating
In short: as §1

[3] = system: pigweed (Amaranthus retroflexus); assay: Test A preemergence; conditions: Amaranthus retroflexus, pre-emergence, 240 h, preemergence, 0 to 100 scale where 0 is no effect and 100 is complete control, read-out: Pigweed plant response rating
[4] = system: ragweed (common ragweed, Ambrosia elatior); assay: Test A preemergence; conditions: Ambrosia artemisiifolia, pre-emergence, 240 h, preemergence, 0 to 100 scale where 0 is no effect and 100 is complete control, read-out: Ragweed plant response rating
In short: as §1

[5] = system: ryegrass, Italian (Italian ryegrass, Lolium multiflorum); assay: Test A preemergence; conditions: Lolium multiflorum, pre-emergence, 240 h, preemergence, 0 to 100 scale where 0 is no effect and 100 is complete control, read-out: Ryegrass, Italian plant response rating
In short: as §1

[6] = system: blackgrass (Alopecurus myosuroides); assay: Test A postemergence; conditions: Alopecurus myosuroides, post-emergence, 240 h, postemergence
In short: as §1

[7] = system: giant foxtail (Setaria faberii); assay: Test A postemergence; conditions: Setaria faberi, post-emergence, 240 h, postemergence
In short: as §1

[8] = system: pigweed (Amaranthus retroflexus); assay: Test A postemergence; conditions: Amaranthus retroflexus, post-emergence, 240 h, postemergence
In short: as §1

[9] = system: ryegrass, Italian (Italian ryegrass, Lolium multiflorum); assay: Test A postemergence; conditions: Lolium multiflorum, post-emergence, 240 h, postemergence
In short: as §1

[10] = system: wheat (Triticum aestivum); assay: Test A postemergence; conditions: Triticum aestivum, post-emergence, 240 h, postemergence
In short: as §1

[11] = system: barnyardgrass (Echinochloa crus-galli); assay: Test B flooded paddy test; conditions: Echinochloa crus-galli, 250 g ai/ha, Flood; 0 to 100 scale where 0 is no effect and 100 is complete control; read-out: Barnyardgrass plant response rating
In short: (§2)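 Flooding to 3 cm over soil accompanied treatment, which consisted of adding compound to the standing water around 2-leaf plants; depth was then maintained. Visual assessment versus controls followed at 13 to 15 d (scale 0–100, 0 meaning no effect).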

[12] = system: ducksalad (Heteranthera limosa); assay: Test B flooded paddy test; conditions: Heteranthera limosa, 250 g ai/ha, Flood; 0 to 100 scale where 0 is no effect and 100 is complete control; read-out: Ducksalad plant response rating
In short: as §2

rice (Oryra sativa) = assay: Test B flooded paddy test; conditions: Oryza sativa, 250 g ai/ha, Flood; 0 to 100 scale where 0 is no effect and 100 is complete control; read-out: Rice plant response rating
In short: as §2

[13] = system: sedge, umbrella (small-flower umbrella sedge, Cyperus difformis); assay: Test B flooded paddy test; conditions: Cyperus difformis, 250 g ai/ha, Flood; 0 to 100 scale where 0 is no effect and 100 is complete control; read-out: Sedge, Umbrella plant response rating
In short: as §2

[14] = 125 g ai/ha, visual injury rating, approximately 10 d

## COc1cc(C(F)(F)F)ccc1[C@H]1CNC(=O)[C@@H]1C(=O)Nc1cccc(F)c1F [Compound 1203]
Kochia (Kochia scoparia); [14]
  pest or weed control at 125 g/ha: 20%
Kochia (Kochia scoparia); 500 g ai/ha
  pest or weed control at 500 g/ha: 50%
[1]; [14]
  pest or weed control at 125 g/ha: 80%
[1]; 500 g ai/ha
  pest or weed control at 500 g/ha: 90%
[2]; [14]
  pest or weed control at 125 g/ha: 80%
[2]; 500 g ai/ha
  pest or weed control at 500 g/ha: 90%
[3]; [14]
  pest or weed control at 125 g/ha: 0%
[3]; 500 g ai/ha
  pest or weed control at 500 g/ha: 20%
[4]; [14]
  pest or weed control at 125 g/ha: 30%
[4]; 500 g ai/ha
  pest or weed control at 500 g/ha: 80%
[5]; [14]
  pest or weed control at 125 g/ha: 0%
[5]; 500 g ai/ha
  pest or weed control at 500 g/ha: 20%
[6]; 125 g ai/ha, visual injury vs untreated controls after approx. 10 d, 0 = no effect, 100 = complete control, read-out: Blackgrass plant response rating (0 to 100 scale)
  pest or weed control at 125 g/ha: 20%
[6]; 500 g ai/ha, 0 to 100 scale, 0 is no effect, 100 is complete control, read-out: Blackgrass plant response rating
  pest or weed control at 500 g/ha: 60%
[7]; 125 g ai/ha, visual injury vs untreated controls after approx. 10 d, 0 = no effect, 100 = complete control, read-out: Foxtail, Giant plant response rating (0 to 100 scale)
  pest or weed control at 125 g/ha: 90%
[7]; 500 g ai/ha, 0 to 100 scale, 0 is no effect, 100 is complete control, read-out: Foxtail, Giant plant response rating
  pest or weed control at 500 g/ha: 90%
[8]; 125 g ai/ha, visual injury vs untreated controls after approx. 10 d, 0 = no effect, 100 = complete control, read-out: Pigweed plant response rating (0 to 100 scale)
  pest or weed control at 125 g/ha: 0%
[8]; 500 g ai/ha, 0 to 100 scale, 0 is no effect, 100 is complete control, read-out: Pigweed plant response rating
  pest or weed control at 500 g/ha: 20%
[9]; 125 g ai/ha, visual injury vs untreated controls after approx. 10 d, 0 = no effect, 100 = complete control, read-out: Ryegrass, Italian plant response rating (0 to 100 scale)
  pest or weed control at 125 g/ha: 0%
[9]; 500 g ai/ha, 0 to 100 scale, 0 is no effect, 100 is complete control, read-out: Ryegrass, Italian plant response rating
  pest or weed control at 500 g/ha: 0%
[10]; 125 g ai/ha, visual injury vs untreated controls after approx. 10 d, 0 = no effect, 100 = complete control, read-out: Wheat plant response rating (0 to 100 scale)
  plant injury at 125 g/ha: 0%
[10]; 500 g ai/ha, 0 to 100 scale, 0 is no effect, 100 is complete control, read-out: Wheat plant response rating
  plant injury at 500 g/ha: 50%
[11]
  pest or weed control at 250 g/ha: 30%
[12]
  pest or weed control at 250 g/ha: 100%
Rice (Oryra sativa)
  pest or weed control at 250 g/ha: 0%
[13]
  pest or weed control at 250 g/ha: 0%
